According to patent publication US11426404B2, “Dosing of KRAS inhibitor for treatment of cancers” (AMGEN INC., priority 2019, dated 2022):
“And” between values parts separate entries of the source, which are not always exact repeats. Equal entries are not always repeated.

Key:
KRAS p.G12C tumors [1] = details: preclinical KRAS p.G12C models; cited from earlier work
patients with CRC = assay: Phase 1 study, updated results (cutoff Jan. 8, 2020): adverse events in patients with CRC, N = 42; assay type: in vivo;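 note: values are patient incidence of adverse events, i.e. counts of patients experiencing each event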
Text: (§1) A subject undergoing a therapy is monitored for adverse events (AE) during the course of the therapy. A treatment related AE is an AE that is related to the treatment drug. A treatment emergent AE is one that a subject develops undergoing the treatment that was not present prior to start of therapy. In some cases, the treatment emergent AE is not or suspected not to be related to the treatment itself AEs are characterized as one of five grades—grade 1 is a mild AE; grade 2 is a moderate AE; grade 3 is a severe AE; grade 4 is a life-threatening or disabling AE; and grade 5 is death related to AE.
(§2) The grading of AEs is based on the guidelines provided in the CTCAE version 5.0. AEs for DLT assessment: Hematological toxicity: Febrile neutropenia; Neutropenic infection; Grade 4 neutropenia; Grade ≥3 thrombocytopenia for >7 days; Grade 3 thrombocytopenia with grade ≥2 bleeding; Grade 4 thrombocytopenia; Grade 4 Anemia
(§3) Non-hematological toxicity Grade ≥4, vomiting or diarrhea; Grade 3 diarrhea or grade 3 vomiting lasting more than 3 days despite optimal medical support; Grade ≥3 nausea for 3 days or more despite optimal medical support; Any other grade ≥3 AE
All enrolled patients had received prior lines of systemic anticancer therapy.

clinical = details: human, in vivo, po, 960 mg
[2] = test system: patients with advanced solid tumors other than NSCLC and CRC
Text: as §1, §2, §3

KRAS p.G12C tumors [3] = assay: Treatment of immune-competent mice; assay type: in vivo
KRAS p.G12C tumors [4] = assay: Preclinical KRAS p.G12C tumor models; assay type: in vivo

**Q.** With `C=CC(=O)N1CCN(c2ncnc3c(F)c(-c4c(O)cccc4F)c(Cl)cc23)CC1` [ARS-1620] as the compound, how does the in vivo efficacy (KRAS p.G12C tumors [1]) read?
**A.** The in vivo efficacy was “demonstrates in vivo efficacy”.

**Q.** Which tolerability (patients with CRC; CRC patients) does the source give for `C=CC(=O)N1CCN(c2nc(=O)n(-c3c(C)ccnc3C(C)C)c3nc(-c4c(O)cccc4F)c(F)cc23)[C@@H](C)C1` [Compound A, 4-((S)-4-acryloyl-2-methylpiperazin-1-yl)-6-fluoro-7-(2-fluoro-6-hydroxyphenyl)-1-(2-isopropyl-4-methylpyridin-3-yl)pyrido[2,3-d]pyrimidin-2(1H)-one] here?
**A.** Its tolerability is “well tolerated with mild treatment-related toxicities”.

**Q.** What about the “anemia, grade 3 treatment-related AE” value (patients with CRC; CRC, 42 patients) of the same compound?
**A.** The value was 1 patient.

**Q.** What about the “diarrhea, grade 3 treatment-related AE” value (patients with CRC; CRC, 42 patients) of the same compound?
**A.** The value was 1 patient.

**Q.** What about the “AEs leading to treatment discountinuation, Treatment-Emergent AEs (TEAEs)” value (patients with CRC; CRC, N = 42) of the same compound?
**A.** The value was 2 (4.8) n (%).

**Q.** What about the “AEs leading to treatment discountinuation, Treatment-related TEAEs” value (patients with CRC; CRC, N = 42) of the same compound?
**A.** The value was 0 (0.0) n (%).

**Q.** And the “Anemia (treatment-related TEAE of any grade)” value (patients with CRC; CRC, N = 42)?
**A.** The value was 2 (4.8) n (%).

**Q.** And the “Any grade, Treatment-Emergent AEs (TEAEs)” value (patients with CRC; CRC, N = 42)?
**A.** The value was 38 (90.5) n (%).

**Q.** And the “Any grade, Treatment-related TEAEs” value (patients with CRC; CRC, N = 42)?
**A.** Its value is 20 n (%) and 20 (47.6) n (%).

**Q.** What about the “Blood creatine phosphokinase increase (treatment-related TEAE of any grade)” value (patients with CRC; CRC, N = 42) of the same compound?
**A.** The value was 2 (4.8) n (%).

**Q.** And the “Diarrhea (treatment-related TEAE of any grade)” value (patients with CRC; CRC, N = 42)?
**A.** The value was 8 (19.0) n (%).

**Q.** What about the “Dose-limiting toxicities, Treatment-related TEAEs” value (patients with CRC; CRC, N = 42) of the same compound?
**A.** The value was 0 (0.0) n (%).

**Q.** What about the “Fatal AEs, Treatment-Emergent AEs (TEAEs)” value (patients with CRC; CRC, N = 42) of the same compound?
**A.** Its value is 3 (7.1) n (%).

**Q.** What about the “Fatal AEs, Treatment-related TEAEs” value (patients with CRC; CRC, N = 42) of the same compound?
**A.** The value was 0 (0.0) n (%).

**Q.** What about the “Fatigue (treatment-related TEAE of any grade)” value (patients with CRC; CRC, N = 42) of the same compound?
**A.** Its value is 4 (9.5) n (%).

**Q.** What about the “Grade ≥2, Treatment-Emergent AEs (TEAEs)” value (patients with CRC; CRC, N = 42) of the same compound?
**A.** Its value is 29 (69.0) n (%).

**Q.** What about the “Grade ≥2, Treatment-related TEAEs” value (patients with CRC; CRC, N = 42) of the same compound?
**A.** The value was 9 (21.4) n (%).

**Q.** What about the “Grade ≥3, Treatment-Emergent AEs (TEAEs)” value (patients with CRC; CRC, N = 42) of the same compound?
**A.** The value was 13 (31.0) n (%).

**Q.** What about the “Grade ≥3, Treatment-related TEAEs” value (patients with CRC; CRC, N = 42) of the same compound?
**A.** Its value is 2 (4.8) n (%).

**Q.** What about the “Grade ≥4, Treatment-Emergent AEs (TEAEs)” value (patients with CRC; CRC, N = 42) of the same compound?
**A.** Its value is 3 (7.1) n (%).

**Q.** What about the “Grade ≥4, Treatment-related TEAEs” value (patients with CRC; CRC, N = 42) of the same compound?
**A.** The value was 0 (0.0) n (%).

**Q.** And the “Nausea (treatment-related TEAE of any grade)” value (patients with CRC; CRC, N = 42)?
**A.** The value was 2 (4.8) n (%).

**Q.** And the “Serious AEs, Treatment-Emergent AEs (TEAEs)” value (patients with CRC; CRC, N = 42)?
**A.** The value was 10 (23.8) n (%).

**Q.** And the “Serious AEs, Treatment-related TEAEs” value (patients with CRC; CRC, N = 42)?
**A.** The value was 0 (0.0) n (%).

**Q.** And the “Vomiting (treatment-related TEAE of any grade)” value (patients with CRC; CRC, N = 42)?
**A.** The value was 2 (4.8) n (%).

**Q.** And the AUC (clinical)?
**A.** The AUC was 65.3 µg·h/mL.

**Q.** And the AUC(0-t) (clinical)?
**A.** Its AUC(0-t) is 140 µg·h/mL.

**Q.** What about the “toxicities associated with Compound A” value ([2]; other solid tumors) of the same compound?
**A.** The value was “mild and manageable”.

**Q.** And the “AEs leading to treatment discontinuation, All Treatment-Emergent AEs (TEAEs)” value ([2]; other solid tumors, N = 25)?
**A.** The value was 3 (12.0) n (%).

**Q.** What about the “Any grade, All Treatment-Emergent AEs (TEAEs)” value ([2]; other solid tumors, N = 25) of the same compound?
**A.** The value was 20 (80.0) n (%).

**Q.** What about the “Any grade, All Treatment-Related TEAEs” value ([2]; other solid tumors, N = 25) of the same compound?
**A.** The value was 9 (36.0) n (%).

**Q.** What about the “Dose-limiting toxicities, All Treatment-Related TEAEs” value ([2]; other solid tumors, N = 25) of the same compound?
**A.** The value was 0 (0.0) n (%).

**Q.** What about the “Fatal AEs, All Treatment-Emergent AEs (TEAEs)” value ([2]; other solid tumors, N = 25) of the same compound?
**A.** The value was 4 (16.0) n (%).

**Q.** And the “Fatal AEs, All Treatment-Related TEAEs” value ([2]; other solid tumors, N = 25)?
**A.** Its value is 0 (0.0) n (%).

**Q.** What about the “Grade ≥2, All Treatment-Emergent AEs (TEAEs)” value ([2]; other solid tumors, N = 25) of the same compound?
**A.** Its value is 17 (68.0) n (%).

**Q.** What about the “Grade ≥2, All Treatment-Related TEAEs” value ([2]; other solid tumors, N = 25) of the same compound?
**A.** The value was 4 (16.0) n (%).

**Q.** What about the “Grade ≥3, All Treatment-Emergent AEs (TEAEs)” value ([2]; other solid tumors, N = 25) of the same compound?
**A.** Its value is 15 (60.0) n (%).

**Q.** And the “Grade ≥3, All Treatment-Related TEAEs” value ([2]; other solid tumors, N = 25)?
**A.** The value was 2 (8.0) n (%).

**Q.** What about the “Grade ≥4, All Treatment-Emergent AEs (TEAEs)” value ([2]; other solid tumors, N = 25) of the same compound?
**A.** Its value is 4 (16.0) n (%).

**Q.** And the “Grade ≥4, All Treatment-Related TEAEs” value ([2]; other solid tumors, N = 25)?
**A.** Its value is 0 (0.0) n (%).

**Q.** What about the “Serious AEs, All Treatment-Emergent AEs (TEAEs)” value ([2]; other solid tumors, N = 25) of the same compound?
**A.** Its value is 13 (52.0) n (%).

**Q.** What about the “Serious AEs, All Treatment-Related TEAEs” value ([2]; other solid tumors, N = 25) of the same compound?
**A.** Its value is 1 (4.0) n (%).

**Q.** What about the “diarrhea, grade 3 treatment-related AE” value ([2]; out of 25 patients) of the same compound?
**A.** The value was 1 patients.

**Q.** What about the “diarrhea, treatment-related TEAE” value ([2]; out of 25 patients) of the same compound?
**A.** Its value is 2 patients.

**Q.** What about the “fatigue, treatment-related TEAE” value ([2]; out of 25 patients) of the same compound?
**A.** Its value is 2 patients.

**Q.** And the “pneumonia, grade 3 treatment-related AE” value ([2]; out of 25 patients)?
**A.** The value was 1 patients.

**Q.** What about the “outcome in combination with immune checkpoint inhibition” value (KRAS p.G12C tumors [3]) of the same compound?
**A.** The value was “durable cures”.

**Q.** What about the “effect in combination with chemotherapy and targeted agents” value (KRAS p.G12C tumors [4]) of the same compound?
**A.** The value was “significantly improved the anti-tumor efficacy of chemotherapy and targeted agents”.
